Experimental data as given in PubChem BioAssay AID651996 (Sanford-Burnham Center for Chemical Genomics, 2013).
The source made the active and inactive calls.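 The calls were made as follows: active = compounds whose half-maximal inhibitory concentration of the SKN-1 reporter ratio in worms is 20 µM or lower; inactive = the rest.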

system: C. elegans VP596 Pgst-4::GFP/RFP ratio, acrylamide-induced, 24 h; assay: SKN-1 inhibitor analogs in C. elegans, SAR follow-up, whole organism, GFP/RFP fluorescence ratio, strain VP596 (AID 651996)

IC50 | Structure (SMILES)
4.63 µM | CCOC(=O)Nc1nc(-c2ccc(F)cc2F)cs1
6.15 µM | c1ccc(-c2nc(-c3ccncc3)no2)cc1
14.3 µM | Clc1ccc(-c2nnc(-c3ccco3)o2)cc1
9.32 µM | CSc1cccc(NC(=O)c2cccc3cccnc23)c1
33.1 µM (inactive) | Cc1ccc(N=C/C(C(=O)C(F)(F)F)=C(\O)c2ccco2)cc1Cl
10.5 µM | c1ccc2sc(SCc3ccc(-c4nnco4)cc3)nc2c1
4.14 µM | Fc1ccc(COc2ccc(-c3nnco3)cc2)cc1
7.39 µM | c1ccc(SCc2cc(-c3ccccc3)no2)cc1
8.17 µM | c1ccc(-c2csc(Nc3ccccn3)n2)cc1
58.9 µM (inactive) | O=C(Nc1nc(-c2ccc(Cl)s2)cs1)c1cccs1
17 µM | CCOc1cc(CNCCSc2nnnn2C)cc(Br)c1OCc1ccc(F)cc1
13.8 µM | Brc1ccc(-c2nnc(-c3ccco3)o2)cc1
4.49 µM | CCOc1cc(CNC2CCCC2)cc(Cl)c1OCc1ccc(F)cc1
24.9 µM (inactive) | Clc1ccccc1-c1nnc(-c2ccccc2Cl)o1
8.95 µM | O=C(Nc1nc(-c2ccc(Cl)s2)cs1)c1ccco1
14.8 µM | O=C(/C=C/c1ccccc1)Nc1ccc(CN2CCOCC2)cc1
8.64 µM | Brc1ccc(-c2nc(-c3ccccc3)no2)o1
26.2 µM (inactive) | COc1cc(CNC(C)(C)CO)cc(Br)c1OCc1ccc(Cl)cc1
12.2 µM | O=C(/C=C/Nc1ccc(Br)cc1F)c1ccco1

IC50 | Structure (SMILES)
9.89 µM | CCOc1ccc(-c2nc(-c3cccnc3)no2)cc1
7.88 µM | Cc1nc2ccccc2cc1OCc1ccc(F)cc1
6.84 µM | O=C(Nc1nccs1)c1ccc2ccccc2n1
9.86 µM | CCOc1cc(CNC2CCCC2)cc(Cl)c1OCc1ccccc1
7.94 µM | Clc1ccccc1-c1nc(-c2ccncc2)no1
16.9 µM | O=C(Nc1nc2c(ccc3ccccc32)s1)c1ccco1
8.93 µM | Clc1ccc(Nc2nc(-c3cccs3)cs2)nc1
7.06 µM | Brc1ccc(CSc2nnc(-c3ccco3)o2)cc1
13.8 µM | c1ccc(Nc2nc(-c3cccs3)cs2)nc1
23.2 µM (inactive) | O=C(/C=C/Nc1ccccc1F)c1cccs1
7.21 µM | COc1cc(CNC2CCCC2)cc(Cl)c1OCc1ccc(F)cc1
15.5 µM | c1ccc2oc(SCc3nc4ccccc4s3)nc2c1
1.58 µM | Fc1ccc(-c2csc(-c3ccncc3)n2)cc1
16.9 µM | O=C(Nc1nc(-c2ccccc2)cs1)c1cccs1
6.42 µM | Cc1ccccc1-c1noc(-c2cccs2)n1
28.9 µM (inactive) | COc1ccc(C(=O)Nc2nc(-c3cccs3)cs2)cc1
12.4 µM | O=C(/C=C/c1cccs1)c1ccc(Br)cc1
19.1 µM | Brc1ccc(CSc2nnc(-c3cccnc3)o2)cc1
> 64 µM (inactive) | COc1cc(CNC(C)c2ccccc2)cc(Br)c1OCc1ccc(F)cc1 (configuration not stated)

IC50 | Structure (SMILES)
21.8 µM (inactive) | Cc1ccc(Nc2nc(-c3cccs3)cs2)nc1
7.19 µM | Cc1cc(OCc2cccc(Cl)c2)c(C)cc1CN1CCOCC1
22.7 µM (inactive) | Cc1ccc(CSc2nnc(-c3ccco3)o2)cc1
9.32 µM | O=C(/C=C/c1ccc(Br)cc1)c1ccc(NC2=NCCCS2)cc1
15.5 µM | Cc1oc(-c2ccc(-c3ccccc3)cc2)nc1CN(C)C1CCOC1 (configuration not stated)
12.5 µM | O=C(/C=C/Nc1ccc(F)c(Cl)c1)c1ccco1
14.3 µM | O=C(/C=C/Nc1ccc(F)c(F)c1)c1cccs1
10.7 µM | Cc1ccc(-c2noc(-c3cccs3)n2)cc1
10.9 µM | CCOC(=O)c1c(-c2ccc(-c3ccccc3)cc2)csc1NC(=O)CNCCN(C)C
18 µM | O=C(Nc1ccc(CN2CCOCC2)cc1)c1cc2ccccc2o1
0.64 µM | Clc1ccc(-c2nnc(-c3ccccc3)o2)c(Cl)c1
8.44 µM | O=C(/C=C/Nc1ccc(F)cc1F)c1cccs1
7.34 µM | c1ccc(-c2csc(-c3ccncc3)n2)cc1
4.74 µM | CC(C)c1ccc(C(=O)Nc2ccc(CN3CCOCC3)cc2)cc1
13 µM | O=C(Nc1nc(-c2ccc(Cl)s2)cs1)c1ccccc1
3.81 µM | Fc1ccc(-c2csc(Nc3ccccn3)n2)cc1
2.25 µM | Fc1ccc(COc2ccc(-c3nnco3)cc2)c(Cl)c1
11.8 µM | CCc1ccc(-c2nc(-c3ccncc3)no2)cc1
23.3 µM (inactive) | O=C(/C=C/Nc1ccc(F)cc1F)c1ccco1
